Measurements taken from PubChem BioAssay AID2060888 (Molecular Pharmacology Branch, DTP, NCI, 2025).
pIC50: −log10 of the molar value.

Test system: 695427-040-R-J1-PDC complex spheroid viability
Assay: Anticancer human tumor 695427-040-R-J1-PDC patient-derived colon adenocarcinoma cell line growth inhibition [RAS]
Conditions: for pIC50: curve of first compound; for viability, T/C: stronger effect = lower value
Method in brief: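 Multi-cell-type spheroids: tumor cells plus HUVEC endothelial cells and mesenchymal stem cells. RAS-pathway inhibitors were combined with targeted agents, each dosed in half-log steps down from clinical Cmax, or from 10 microM when Cmax was unknown.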
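Note: viability read after seven days of drug exposure.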
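Throughout, for viability, T/C: 100% = DMSO vehicle control viability.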

pIC50 (second compound 0.000949 µM): 6.04
pIC50 (second compound 0.003 µM): 5.86
pIC50 (second compound 0.00949 µM): 6.01
pIC50 (second compound 0.03 µM): 6.21
pIC50 (second compound 0.0949 µM): 6.03
pIC50 (second compound 0.3 µM): 6.18
SMILES: NC1c2ccccc2OC12CCN(c1cnc3c(N4CCCc5ncccc54)n[nH]c3n1)CC2 (configuration not stated) + CCn1c(-c2cccnc2C(C)OC)c2c3cc(ccc31)N1CCOC(CC(NC(=O)C(C(C)C)N(C)C(=O)C3(F)CCN(C(=O)C#CC(C)(C)N(C)C)CC3)C(=O)N3CCCC(N3)C(=O)OCC(C)(C)C2)C1
viability, T/C (second compound 0.000949 µM, first compound 0.0316 µM): 80.3%
viability, T/C (second compound 0.000949 µM, first compound 0.1 µM): 78.3%
viability, T/C (second compound 0.000949 µM, first compound 0.316 µM): 61.7%
viability, T/C (second compound 0.000949 µM, first compound 1 µM): 49.1%
viability, T/C (second compound 0.000949 µM, first compound 3.16 µM): 50.5%
viability, T/C (second compound 0.000949 µM, first compound 10 µM): 43.2%
viability, T/C (second compound 0.003 µM, first compound 0.0316 µM): 88.9%
viability, T/C (second compound 0.003 µM, first compound 0.1 µM): 70.5%
viability, T/C (second compound 0.003 µM, first compound 0.316 µM): 60.6%
viability, T/C (second compound 0.003 µM, first compound 1 µM): 45.7%
viability, T/C (second compound 0.003 µM, first compound 3.16 µM): 55.7%
viability, T/C (second compound 0.003 µM, first compound 10 µM): 38.6%
viability, T/C (second compound 0.00949 µM, first compound 0.0316 µM): 95.2%
viability, T/C (second compound 0.00949 µM, first compound 0.1 µM): 58.1%
viability, T/C (second compound 0.00949 µM, first compound 0.316 µM): 62.7%
viability, T/C (second compound 0.00949 µM, first compound 1 µM): 54.6%
viability, T/C (second compound 0.00949 µM, first compound 3.16 µM): 54.1%
viability, T/C (second compound 0.00949 µM, first compound 10 µM): 32.8%
viability, T/C (second compound 0.03 µM, first compound 0.0316 µM): 79.3%
viability, T/C (second compound 0.03 µM, first compound 0.1 µM): 63.4%
viability, T/C (second compound 0.03 µM, first compound 0.316 µM): 53%
viability, T/C (second compound 0.03 µM, first compound 1 µM): 45.1%
viability, T/C (second compound 0.03 µM, first compound 3.16 µM): 50.6%
viability, T/C (second compound 0.03 µM, first compound 10 µM): 35.3%
viability, T/C (second compound 0.0949 µM, first compound 0.0316 µM): 67%
viability, T/C (second compound 0.0949 µM, first compound 0.1 µM): 67.4%
viability, T/C (second compound 0.0949 µM, first compound 0.316 µM): 53.2%
viability, T/C (second compound 0.0949 µM, first compound 1 µM): 47.4%
viability, T/C (second compound 0.0949 µM, first compound 3.16 µM): 46.2%
viability, T/C (second compound 0.0949 µM, first compound 10 µM): 31.7%
viability, T/C (second compound 0.3 µM, first compound 0.0316 µM): 75.3%
viability, T/C (second compound 0.3 µM, first compound 0.1 µM): 46.4%
viability, T/C (second compound 0.3 µM, first compound 0.316 µM): 60.4%
viability, T/C (second compound 0.3 µM, first compound 1 µM): 51.8%
viability, T/C (second compound 0.3 µM, first compound 3.16 µM): 38.9%
viability, T/C (second compound 0.3 µM, first compound 10 µM): 27.1%
